The results in this text go back to the supplement of paper PMC11061612.

What all share (assay): Bliss excess, mean over the matrix (fraction); higher = more synergy
Test [1] relates to RS4-11 (B-Lymphoblastic Leukemia). In a few lines:
(§1)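 Bliss excess equals the observed combination effect minus the expected value EA + EB − EA·EB, where EA and EB are the effects of each agent alone. Combination Emax is the second-highest inhibition within the matrix. Inhibition was scaled from CellTiter-Glo 2.0 luminescence, with 0 set by vehicle wells and 1 by blank wells, after 72 hours of two-drug dosing of cells plated in 1536-well plates.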

In test [2] the test system is Daudi (Burkitt's Lymphoma). In short, it runs like this:
as §1

Test [3] concerns SBC-3 (Small Cell Lung Carcinoma). In short, it runs like this: as §1
Test [4] deals with MG-63 (Osteosarcoma). In short, it runs like this:
as §1

Test [5] concerns NCI-H2170 (Squamous Cell Lung Carcinoma). In short, it runs like this: as §1
The test system of test [6] is MRK-nu-1 (Breast Carcinoma). In short, it runs like this: as §1
The test system of test [7] is SUP-HD1 (Hodgkin's Lymphoma). In short, it runs like this:
as §1

For test [8], the system named is OCI-M1 (Acute Myeloid Leukemia). In short, it runs like this: as §1
In test [9] the test system is CAL-85-1 (Breast Carcinoma). In short, it runs like this: as §1
For test [10], the system named is NCI-H1648 (Lung Adenocarcinoma). In a few lines:
as §1

For test [11], the system named is HT-1197 (Bladder Carcinoma). In a few lines:
as §1

Test [12] deals with SBC-5 (Small Cell Lung Carcinoma). In short, it runs like this:
as §1

Test [13] concerns C32 (Melanoma). In short, it runs like this:
as §1

The subject of test [14] is RPMI-8402 (T-Lymphoblastic Leukemia). In short, it runs like this:
as §1

The test system of test [15] is NCI-H1435 (Non-Small Cell Lung Carcinoma). In short, it runs like this: as §1
The subject of test [16] is JJN-3 (Plasma Cell Myeloma). In a few lines:
as §1

In test [17] the test system is BT-474 (Breast Carcinoma). In short, it runs like this: as §1
The subject of test [18] is IGROV-1 (Ovarian Carcinoma). In a few lines:
as §1

Test [19] has as its system C2BBe1 (Colorectal Carcinoma). In short, it runs like this:
as §1

Test [20] relates to SK-MEL-24 (Melanoma). In short, it runs like this:
as §1

Take `Cc1cc2ncnn2cc1Nc1ncc2c(n1)n(C1CCOCC1)c(=O)n2C` [AZD7648] + O=C(c1cc(Cc2n[nH]c(=O)c3ccccc23)ccc1F)N1CCN(C(=O)C2CC2)CC1 [Olaparib] (first compound max 10 µM, 7x7, partner max 10 µM): the Bliss excess is -0.0831 in [1]; -0.0336 in [2]; -0.0148 in test [3]; 0.0014 in test [4]; -0.0052 in [5]; -0.0615 in [6]. Besides, the Bliss excess in test [7] was 0.0862; in [8] it was -0.0248; in test [9] it was -0.057; in test [10], -0.0549; in [11] it was 0.0045; in test [12] it was -0.034. The Bliss excess was -0.0375 in test [13]; -0.0158 in test [14]; -0.0366 in test [15]; -0.008 in test [16]; -0.0457 in [17]; -0.0782 in [18]. For the same compound, the Bliss excess in test [19] is -0.0402; in test [20] it was -0.0533.
Take `Cc1nc(Nc2ncc(C(=O)Nc3c(C)cccc3Cl)s2)cc(N2CCN(CCO)CC2)n1` [Dasatinib] + CC(=O)Nc1cccc(-n2c(=O)n(C3CC3)c(=O)c3c(Nc4ccc(I)cc4F)n(C)c(=O)c(C)c32)c1 [Trametinib] (first compound max 2 µM, 7x7, partner max 1 µM): the Bliss excess in test [1] is -0.0685; in test [2] it was -0.0221; in test [3], 0.0453; in test [4], -0.0066; in test [5], -0.0593; in [6] it was -0.0688. Further, the Bliss excess in [7] was -0.0782; in test [8], 0.0346; in test [9], 0.0959; in test [10] it was 0.0135; in [11], -0.0524; in test [12] it was 0.025. Also, the Bliss excess in test [13] was -0.0198; in [14], 0.0053; in [15] it was 0.0975; in test [16] it was 0.0148; in test [17], -0.0493; in test [18] it was -0.0554. The Bliss excess came out at 0.0323 in test [19] and 0.141 in test [20].
Regarding `COc1cc2ncnc(Nc3ccc(F)c(Cl)c3)c2cc1OCCCN1CCOCC1` [Gefitinib] + CC(C)n1c(=O)n(C)c2cnc3cc(F)c(-c4ccc(OCCCN5CCCCC5)nc4)cc3c21 [AZD1390] (first compound max 10 µM, 7x7, partner max 0.3 µM), the Bliss excess in test [1] is -0.0484; in [2] it was -0.0688; in test [3], -0.0501; in test [4] it was -0.0772; in test [5] it was -0.0867; in test [6], 0.0492. The Bliss excess in test [7] is -0.0683; in test [8], -0.065; in test [9] it was -0.0236; in [10] it was -0.0521; in test [11], -0.0549; in test [12] it was -0.0649. Also, the Bliss excess in test [13] is -0.0368; in test [14] it was -0.0801; in [15], -0.0289; in test [16], -0.0185; in test [17], -0.0866; in test [18], -0.0824. For the same compound, the Bliss excess in [19] is -0.029; in test [20], -0.0831.
In the case of `COc1cc2c(cc1OCCCCCOc1cc3c(cc1OC)C(=O)N1C=C(C)C[C@H]1C=N3)N=C[C@@H]1CC(C)=CN1C2=O` [SG3199] + O=C(c1cc(Cc2n[nH]c(=O)c3ccccc23)ccc1F)N1CCN(C(=O)C2CC2)CC1 [Olaparib] (first compound max 0.001 µM, 7x7, partner max 10 µM), the Bliss excess in [1] was 0.0338; in test [2], -0.0273; in test [3], -0.0516; in test [4], -0.0041; in test [5] it was -0.009; in test [6], -0.0642. In addition, the Bliss excess in test [7] is 0.1; in [8] it was -0.0065; in test [9], -0.0407; in test [10], -0.0282; in [11] it was -0.028; in [12] it was -0.0193. Also, the Bliss excess in test [13] was -0.0373; in test [14] it was -0.0259; in test [15], -0.0584; in [16], 0.0128; in test [17], -0.0487; in test [18], -0.0101. In addition, the Bliss excess in [19] is -0.0188; in [20], -0.0576.
As to `C[C@@H](c1ccc2nccn2c1)n1nnc2ncc(-c3cnn(C)c3)nc21` [Savolitinib] + CC1(C)CCC(CN2CCN(c3ccc(C(=O)NS(=O)(=O)c4ccc(NCC5CCOCC5)c([N+](=O)[O-])c4)c(Oc4cnc5[nH]ccc5c4)c3)CC2)=C(c2ccc(Cl)cc2)C1 [Venetoclax] (first compound max 1 µM, 7x7, partner max 1 µM), the Bliss excess is -0.0566 in [1]; -0.0988 in test [2]; -0.0435 in [3]; -0.0157 in [4]; -0.0336 in test [5]; 0.0851 in test [6]. Moreover, the Bliss excess is 0.034 in [7]; -0.0215 in test [8]; -0.0468 in test [9]; -0.0253 in test [10]; -0.0534 in test [11]; -0.0451 in [12]. For the same compound, the Bliss excess was -0.0338 in test [13]; -0.0218 in test [14]; -0.0034 in test [15]; -0.012 in [16]; -0.0682 in test [17]; -0.04 in [18]. Further, the Bliss excess in test [19] is -0.0759; in test [20], -0.0805.
Regarding `C[C@@H](c1ccc2nccn2c1)n1nnc2ncc(-c3cnn(C)c3)nc21` [Savolitinib] + Cc1c2c(nn1C)CSCc1cc(n(C)n1)CSc1cc(c3ccccc3c1)OCCCc1c(C(=O)O)n(C)c3c-2c(Cl)ccc13 [AZD5991] (first compound max 1 µM, 7x7, partner max 1 µM), the Bliss excess in [1] is -0.0406; in [2], -0.0126; in test [3], -0.0321; in [4] it was 0.0065; in [5], -0.0199; in test [6], 0.0344. For the same compound, the Bliss excess is -0.05 in [7]; 0.0026 in test [8]; -0.0286 in test [9]; 0.0216 in test [10]; -0.0356 in test [11]; 0.0286 in test [12]. Moreover, the Bliss excess was -0.0065 in test [13]; -0.132 in [14]; -0.0263 in test [15]; -0.0384 in test [16]; -0.0595 in test [17]; -0.0303 in test [18]. Moreover, the Bliss excess in test [19] is -0.0455; in test [20] it was -0.0519.
